Test results: patent publication US11667649B2, “Heteroaromatic macrocyclic ether chemotherapeutic agents” (Nuvalent, Inc., priority 2020, dated 2023)

Test system: TPM3-NTRK1-wt IC50 / primary target (e.g. CD74-ROS1-wt) IC50, Ba/F3 cells
Experiment: Cell assay TRKA selectivity (TRKA potency divided by primary target potency)
Type: cell-based
Conditions: for TPM3-NTRK1-wt/CD74-ROS1-G2032R: TRKA selectivity ratio: TPM3-NTRK1-wt IC50 / CD74-ROS1-G2032R IC50, Ba/F3 cells; for TPM3-NTRK1-wt/CD74-ROS1-wt: TRKA selectivity ratio: TPM3-NTRK1-wt IC50 / CD74-ROS1-wt IC50, Ba/F3 cells; for TPM3-NTRK1-wt/EML4-ALK-L1196M-G1202R: TRKA selectivity ratio: TPM3-NTRK1-wt IC50 / EML4-ALK-L1196M-G1202R IC50, Ba/F3 cells; for TPM3-NTRK1-wt/EML4-ALK-wt: TRKA selectivity ratio: TPM3-NTRK1-wt IC50 / EML4-ALK-wt IC50, Ba/F3 cells
In short: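 Ratio of TRKA to primary-target cellular IC50 (e.g. TPM3-NTRK1-wt/CD74-ROS1-wt), grouped into bins A >30, B >10, C ≥1, D <1. Each IC50 came from engineered Ba/F3 fusion lines grown without IL-3, dosed for 72 h and read as CellTiter-Glo luminescence, with a four-parameter logistic fit.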

Row | Compound | TPM3-NTRK1-wt/CD74-ROS1-G2032R | TPM3-NTRK1-wt/CD74-ROS1-wt | TPM3-NTRK1-wt/EML4-ALK-L1196M-G1202R | TPM3-NTRK1-wt/EML4-ALK-wt
1 | Cc1cc2n(n1)-c1ccc(F)cc1COc1cc(cnc1N)-c1c(cnn1CC1CC1)C2 [Example 126, 3-(cyclopropylmethyl)-16-fluoro-10-methyl-20-oxa-3,4,11,12,23-pentaazapentacyclo[19.3.1.0^2,^6.0^8,^12.0^13,^18]pentacosa-1(24),2(6),4,8,10,13,15,17,21(25),22-decaen-22-amine] | A (bin A for very high selectivity, ratio>30-fold) | A (bin A for very high selectivity, ratio>30-fold) | A (bin A for very high selectivity, ratio>30-fold) | A (bin A for very high selectivity, ratio>30-fold)
2 | Cc1nn(CC2CC2)c2c1Cc1cn(C)nc1-c1ccc(F)cc1COc1cc-2cnc1N [Example 127, 3-(cyclopropylmethyl)-16-fluoro-5,10-dimethyl-20-oxa-3,4,10,11,23-pentaazapentacyclo[19.3.1.0^2,^6.0^8,^12.0^13,^18]pentacosa-1(24),2(6),4,8,11,13,15,17,21(25),22-decaen-22-amine] | A (bin A for very high selectivity, ratio>30-fold) | A (bin A for very high selectivity, ratio>30-fold) | A (bin A for very high selectivity, ratio>30-fold) | A (bin A for very high selectivity, ratio>30-fold)
3 | C[C@H]1Oc2cc(cnc2N)-c2c(nnn2CC2CC2)Cc2cc(C(F)(F)F)nn2-c2ccc(F)cc21 [Example 128, (19R)-3-(cyclopropylmethyl)-16-fluoro-19-methyl-10-(trifluoromethyl)-20-oxa-3,4,5,11,12,23-hexaazapentacyclo[19.3.1.0^2,^6.0^8,^12.0^13,^18]pentacosa-1(24),2(6),4,8,10,13,15,17,21(25),22-decaen-22-amine] | A (bin A for very high selectivity, ratio>30-fold) | A (bin A for very high selectivity, ratio>30-fold) | C (bin C for moderate selectivity, ratio≥1) | B (bin B for high selectivity, ratio>10-fold)
4 | C[C@H]1Oc2cc(cnc2N)-c2c(cnn2CC2CC2)Cc2cc(C(F)F)nn2-c2ccc(F)cc21 [Example 130, (19R)-3-(cyclopropylmethyl)-10-(difluoromethyl)-16-fluoro-19-methyl-20-oxa-3,4,11,12,23-pentaazapentacyclo[19.3.1.0^2,^6.0^8,^12.0^13,^18]pentacosa-1(24),2(6),4,8,10,13,15,17,21(25),22-decaen-22-amine] | A (bin A for very high selectivity, ratio>30-fold) | A (bin A for very high selectivity, ratio>30-fold) | B (bin B for high selectivity, ratio>10-fold) | A (bin A for very high selectivity, ratio>30-fold)
5 | CCn1ncc2c1-c1cnc(N)c(c1)O[C@H](C)c1cc(F)ccc1-c1nc(C)oc1C2 [Example 131, (19R)-3-ethyl-16-fluoro-10,19-dimethyl-9,20-dioxa-3,4,11,23-tetraazapentacyclo[19.3.1.0^2,^6.0^8,^12.0^13,^18]pentacosa-1(24),2(6),4,8(12),10,13,15,17,21(25),22-decaen-22-amine] | B (bin B for high selectivity, ratio>10-fold) | A (bin A for very high selectivity, ratio>30-fold) | C (bin C for moderate selectivity, ratio≥1) | B (bin B for high selectivity, ratio>10-fold)
6 | C[C@H]1Oc2cc(cnc2N)-c2c(C#N)nn(C)c2Cc2cc(C(F)F)nn2-c2ccc(F)cc21 [Example 132, (19R)-22-amino-10-(difluoromethyl)-16-fluoro-5,19-dimethyl-20-oxa-4,5,11,12,23-pentaazapentacyclo[19.3.1.0^2,^6.0^8,^12.0^13,^18]pentacosa-1(24),2(6),3,8,10,13,15,17,21(25),22-decaene-3-carbonitrile] | A (bin A for very high selectivity, ratio>30-fold) | A (bin A for very high selectivity, ratio>30-fold) | C (bin C for moderate selectivity, ratio≥1) | A (bin A for very high selectivity, ratio>30-fold)
7 | C[C@H]1Oc2cc(cnc2N)-c2c(c(Cl)nn2CC2CC2)Cc2cn(C)nc2-c2ccc(F)cc21 [Example 133, (19R)-5-chloro-3-(cyclopropylmethyl)-16-fluoro-10,19-dimethyl-20-oxa-3,4,10,11,23-pentaazapentacyclo[19.3.1.0^2,^6.0^8,^12.0^13,^18]pentacosa-1(24),2(6),4,8,11,13,15,17,21(25),22-decaen-22-amine] | A (bin A for very high selectivity, ratio>30-fold) | A (bin A for very high selectivity, ratio>30-fold) | A (bin A for very high selectivity, ratio>30-fold) | A (bin A for very high selectivity, ratio>30-fold)
8 | Cc1nc2c(s1)Cc1c(C)nn(CC3CC3)c1-c1cnc(N)c(c1)O[C@H](C)c1cc(F)ccc1-2 [Example 134, (19R)-3-(cyclopropylmethyl)-16-fluoro-5,10,19-trimethyl-20-oxa-9-thia-3,4,11,23-tetraazapentacyclo[19.3.1.0^2,^6.0^8,^12.0^13,^18]pentacosa-1(24),2(6),4,8(12),10,13,15,17,21(25),22-decaen-22-amine] | A (bin A for very high selectivity, ratio>30-fold) | A (bin A for very high selectivity, ratio>30-fold) | A (bin A for very high selectivity, ratio>30-fold) | A (bin A for very high selectivity, ratio>30-fold)
9 | Cc1nn(CC2CC2)c2c1Cc1cccnc1-c1ccc(F)cc1[C@@H](C)Oc1cc-2cnc1N [Example 135, (20R)-3-(cyclopropylmethyl)-17-fluoro-5,20-dimethyl-21-oxa-3,4,12,24-tetraazapentacyclo[20.3.1.0^2,^6.0^8,^13.0^14,^19]hexacosa-1(25),2(6),4,8(13),9,11,14,16,18,22(26),23-undecaen-23-amine] | A (bin A for very high selectivity, ratio>30-fold) | A (bin A for very high selectivity, ratio>30-fold) | A (bin A for very high selectivity, ratio>30-fold) | A (bin A for very high selectivity, ratio>30-fold)
10 | Cc1nn(CC2CC2)c2c1Cc1cc(C(F)F)nn1-c1ccc(F)cc1COc1cc-2cnc1N [Example 136, 3-(cyclopropylmethyl)-10-(difluoromethyl)-16-fluoro-5-methyl-20-oxa-3,4,11,12,23-pentaazapentacyclo[19.3.1.0^2,^6.0^8,^12.0^13,^18]pentacosa-1(24),2(6),4,8,10,13,15,17,21(25),22-decaen-22-amine] | A (bin A for very high selectivity, ratio>30-fold) | A (bin A for very high selectivity, ratio>30-fold) | A (bin A for very high selectivity, ratio>30-fold) | A (bin A for very high selectivity, ratio>30-fold)
11 | C[C@H]1Oc2cc(cnc2N)-c2c(cnn2CC2CC2)Cc2cccnc2-c2ccc(F)cc21 [Example 137, (20R)-3-(cyclopropylmethyl)-17-fluoro-20-methyl-21-oxa-3,4,12,24-tetraazapentacyclo[20.3.1.0^2,^6.0^8,^13.0^14,^19]hexacosa-1(25),2(6),4,8(13),9,11,14,16,18,22(26),23-undecaen-23-amine] | A (bin A for very high selectivity, ratio>30-fold) | A (bin A for very high selectivity, ratio>30-fold) | A (bin A for very high selectivity, ratio>30-fold) | A (bin A for very high selectivity, ratio>30-fold)
12 | Nc1ncc2cc1OCc1cc(F)ccc1-n1nc(C(F)F)cc1Cc1cnn(CC3CC3)c1-2 [Example 138, 3-(cyclopropylmethyl)-10-(difluoromethyl)-16-fluoro-20-oxa-3,4,11,12,23-pentaazapentacyclo[19.3.1.0^2,^6.0^8,^12.0^13,^18]pentacosa-1(24),2(6),4,8,10,13,15,17,21(25),22-decaen-22-amine] | A (bin A for very high selectivity, ratio>30-fold) | A (bin A for very high selectivity, ratio>30-fold) | A (bin A for very high selectivity, ratio>30-fold) | A (bin A for very high selectivity, ratio>30-fold)
13 | C[C@H]1Oc2cc(cnc2N)-c2c(cnn2C2COC2)Cc2cn(C)nc2-c2ccc(F)cc21 [Example 139, (19R)-16-fluoro-10,19-dimethyl-3-(oxetan-3-yl)-20-oxa-3,4,10,11,23-pentaazapentacyclo[19.3.1.0^2,^6.0^8,^12.0^13,^18]pentacosa-1(24),2(6),4,8,11,13,15,17,21(25),22-decaen-22-amine] | A (bin A for very high selectivity, ratio>30-fold) | A (bin A for very high selectivity, ratio>30-fold) | C (bin C for moderate selectivity, ratio≥1) | A (bin A for very high selectivity, ratio>30-fold)
